Type in all cases: cell-based, human
In assay [1] the test system is p53. Put plainly: p53 ELISA in SiHa cells. As to conditions: with 4 μg/ml mitomycin C, 24 h. The procedure:
(§1) Figure 6 Treatment with myricetin and spinacine (5) increases cellular levels of caspase 8 and p53. (a) SiHa cells (1 × 10^6 per well) were seeded into a six-well plate and allowed to incubate overnight. The indicated concentrations of myricetin and spinacine were added, and then cells were incubated for 24 h. Cells were then washed in 1 × PBS and then harvested, and the resulting level of caspase 8 was measured by immunoblot. (b) SiHa and C33A cells (1 × 10^6 per well) were seeded into a six-well plate and allowed to incubate overnight. In all, 200 μM of myricetin and 100 μM spinacine were added together with 4 μg/ml mitomycin C and incubated for 24 h. The resulting level of p53 was measured by enzyme-linked immunosorbent assay, and the level of p53 found in untreated cells was set at 100%. Experiments were performed in triplicate, and error bars indicate the S.D.
(§2) The p53 ELISA was performed as described previously,[26] with some modifications. Antibodies secreted by clone pAb122 (hybridoma obtained from ATCC, antibodies purified from the culture medium using protein-A Sepharose) were used as monoclonal capture antibodies. […] The average and S.D. of the replicates (a minimum of three) were calculated, normalized to the control, and used to prepare the graph.
On the technique in general: ELISA stands for enzyme-linked immunosorbent assay.

Assay [2] has as its system p53. Put plainly: p53 ELISA in C33A cells. As to conditions: C33A cells (HPV−, mutant p53), with 4 μg/ml mitomycin C, 24 h. The procedure: as §1, §2
For the next assay, the system named is SCC84. Put plainly: TRAIL-induced cell death in HPV− HNSCC line SCC84 (MTT). As to conditions: HPV− #84, myricetin 0–200 μM or spinacine 0–100 μM, 50 ng/ml TRAIL. How it is done: (§3) Figure 7 Myricetin and spinacine (5) can re-sensitize HPV^+, but not HPV^−, head and neck cancer cell lines to treatment with TRAIL. (a) Both HPV^− and HPV^+ HN cancer cell lines display resistance to TRAIL treatment. (b) HPV^− (UMSCC 29 and SCC 84) and (c) HPV^+ (UMSCC 47, UPCI-SCC90-UP-Clone 35, and UM-SCC47-TC-Clone 3) head and neck cancer cell lines (2 × 10^4 cells per well) were seeded into 96-well plates and allowed to incubate overnight, and then cells were pretreated with myricetin (0–200 μM) or spinacine (0–100 μM) for 4 h. […] Cell viability was measured by the MTT assay, and the viability of cells untreated with small molecules was set at 100%. Experiments were performed in triplicate, and error bars indicate the S.D.
(§4) The extracellular domain of human TRAIL was cloned into a pTriEx expression plasmid containing N-terminal Hisx6 tag. His-TRAIL was expressed in the E. coli BL-21 pLys strain and purified as previously described. Doxorubicin and cisplatin were purchased from Sigma. His-TRAIL, doxorubicin, and cisplatin were diluted in PBS to the desired concentration before using. […] All experiments were repeated at least three times (three biological replicates, carried out on different days), with each experimental group measured in triplicate within each of these individual experiments. […]

For a further assay, the system named is UPCI-SCC90-UP-Clone 35. Put plainly: TRAIL-induced cell death in HPV+ HNSCC line UPCI-SCC90-UP-Clone 35 (MTT). The note with it: HPV+ #90, 40 μM compound 4 h, 50 ng/ml TRAIL + cycloheximide. How it is done: as §3, §4
For the next assay, the system named is SCC 84. Put plainly: Sensitization to doxorubicin in HPV− HNSCC line SCC 84 (MTT). As to conditions: HPV− #84, compound 0–12.5 μM, 2 μM doxorubicin. How it is done:
Figure 8 Myricetin and spinacine (5) can re-sensitize HPV^+, but not HPV^−, HNSCC cell lines to treatment with doxorubicin. Two HPV^− (UMMSCC 29 and SCC 84) and three HPV^+ (UMSCC 47, UPCI-SCC90-UP-Clone 35, and UM-SCC47-TC Clone 3) head and neck cancer cell lines (2 × 10^4 cells per well) were seeded into 96-well plates and allowed to incubate overnight, and then cells were pretreated with myricetin or spinacine (0–12.5 μM) for 4 h. In all, 2 μM of doxorubicin was added, and the cells were allowed to incubate overnight. Cell viability was measured by MTT assay, and the viability of cells untreated with small molecules was set at 100%. Experiments were performed in triplicate, and error bars indicate the S.D.
as §4

Turning to `O=c1c(O)c(-c2cc(O)c(O)c(O)c2)oc2cc(O)cc(O)c12` [Myricetin, myricetin, reference compound], the “increase in p53 compared with untreated cells” value in the assay with p53 [1] (200 μM) was found to be 4.4 fold. The “change in p53 levels” value with p53 [2] (200 μM) is “no significant change”. Besides, the “response to TRAIL in presence and absence of compound” value in the assay with SCC84 was “resistant”. In addition, the “enhancement of TRAIL-induced cell death” value in the assay on UPCI-SCC90-UP-Clone 35 turned out to be 30%. Besides, the “response to doxorubicin in presence and absence of compound” value in the assay with SCC 84 is on record as “resistant”.
Take `O=C(O)C1Cc2[nH]cnc2CN1` (stereo not shown) [Spinacine (5), 4,5,6,7-tetrahydro-1H-imidazo[4,5–c]pyridine-6-carboxylic acid]: the “increase in p53 compared with untreated cells” value with p53 [1] (100 μM) was 3.4 fold. The “change in p53 levels” value in the assay with p53 [2] (100 μM) is reported as “no significant change”. Moreover, the “response to TRAIL in presence and absence of compound” value in the assay with SCC84 is reported as “resistant”. For the same molecule, the “enhancement of TRAIL-induced cell death” value with UPCI-SCC90-UP-Clone 35 is “up to 50%”. In the assay on SCC 84, the “response to doxorubicin in presence and absence of compound” value was “resistant”.

Values taken from publication PMC5154303, “Flavonol and imidazole derivatives block HPV16 E6 activities and reactivate apoptotic pathways in HPV^+ cells” (Cell Death & Disease, 2016).
